Source: patent publication US20150250769A1, “METHODS AND COMPOSITIONS FOR INHIBITING RHO/MRTF-MEDIATED DISEASES AND CONDITIONS” (THE REGENTS OF THE UNIVERSITY OF MICHIGAN, priority 2014, published 2015)
pIC50: −log10 of the molar value. “Also recorded” adds a separate entry of the source.

How the values were obtained:
[1] = system: Rho (MRTF/SRF-regulated gene transcription, SRE-Luciferase); settings: Evelyn et al. 2007; cited from earlier work
peritoneal fibrosis = settings: Sakai et al. 2013; cited from earlier work
cellular migration = experiment: Cellular migration; type: cell-based; settings: FIG. 5
[2] = In vivo tolerability (general statement); settings: compared with CCG-1423
skin fibrosis = experiment: Bleomycin skin injury (dermal fibrosis) model; type: in vivo; settings: mouse; 100 mg/kg
Description: Mice are weighed once prior to study start. Dermal fibrosis is induced in Groups 2-5 by daily intradermal injections of bleomycin over 14 days. Group 1 will receive vehicle 1 (PBS) over the same days. Daily therapeutic dosing with either vehicle 2 or CCG-58150 by oral gavage coincide with the intradermal injection study days. Mice are anesthetized using isoflurane during intradermal injections. The back is shaved and the injection site ( 1 cm2) cleaned with three alternating passes of chlorhexidine and warm, sterile saline or water. The periphery of the injection site is circled using a […] marker as a visual aid. Bleomycin is dissolved in sterile PBS at a concentration of 1 mg/ml, sterile filtered, and frozen in aliquots appropriately sized for the daily injections prior to the start of the dosing period. 100 μl of bleomycin or PBS (Vehicle 1) is administered to anesthetized mice by intradermal injection using a 0.5 cc TB syringe with a 27 G needle. Following bleomycin or vehicle administration, test substance (CCG-58150) or vehicle 2 (20% DMSO/30% PEG/50% PBS) is administered by oral gavage at 10 μL/gram of body weight. […] Images are collected on an Evos microscope and skin thickness and intensity of fibrosis of two distinct images from each animal is analyzed using ImageJ. […]

Acute cellular toxicity = type: cell-based; settings: FIG. 2B; compared with CCG-1423
human dermal fibroblasts = experiment: Myofibroblast differentiation / αSMA staining in dermal fibroblasts (TGFβ-induced normal, SSc); type: cell-based; settings: for myofibroblast differentiation / phenotype (αSMA): in vitro, TGFβ-stimulated normal human dermal fibroblasts and SSc fibroblasts; for potency to reduce alpha-SMA staining, human primary dermal fibroblasts: 72-hour assay
Method: B-D) Human dermal fibroblasts were treated with TGFβ (10 ng/ml) for 3 days with various concentrations of CCG-58150.
(§1) A & B) CCG-203971 inhibits LPA-induced COL1A2 and ACTA2 (αSMA) mRNA in NIH-3T3 cells.

[3] = system: COL1A2 and ACTA2 (αSMA) mRNA; experiment: LPA-induced COL1A2 and ACTA2 mRNA in NIH-3T3 cells; type: cell-based
Description: as §1

[4] = system: Rho (MRTF/SRF-regulated gene transcription, SRE-Luciferase); experiment: SRE-Luciferase reporter, Rho inhibition; type: cell-based
Method: In the course of these studies, the rho transcription reporter method that uses the rho-specific SRE-Luciferase was developed. This transcriptional reporter method, described in detail therein, was used for screening a small chemical library for possible rho inhibitors (Evelyn et al., Mol Canc. Ther. 6:2249-60, 2007; herein incorporated by reference in its entirety). Additional inhibitors were identified as described below.
CCG-1423 was a cellular IC50 of ˜1 uM to inhibit SRE-Luciferase expression (Evelyn, C. R., Wade, S. M., Wang, Q., Wu, M., Iniguez-Lluhi, J. A., Merajver, S. D., and Neubig, R. R. 2007. CCG-1423: a small-molecule inhibitor of RhoA transcriptional signaling. Mol Cancer Ther 6:2249-2260). It has been used in many labs as a tool compound for blocking MRTF/SRF-regulated gene transcription (Sandbo et al., et al., 2011. Am J Physiol Lung Cell Mol Physiol 301:L656-666; Sandbo, et al., 2009. Am J Respir Cell Mol Biol 41:332-338; Evelyn, et al., 2007. Mol Cancer Ther 6:2249-2260; Sandbo et al., 2013. J Biol Chem 288:15466-15473; Prencipe et al., 2013. Prostate 73:743-753; Sakai et al., 2013. FASEB J 27:1830-1846; Buller et al., 2012. Glia 60:1906-1914; Chong et al., 2012. PLoS One 7:e40966; Jin et al., 2011. J Clin Invest 121:918-929; Mae et al., 2010. Biochem Biophys Res Commun 393:877-882; Evelyn et al., 2010. Bioorg Med Chem Lett 20:665-672; Lu et al., 2009. Curr Med Chem 16:1355-1365). CCG-1423 acts by preventing nuclear accumulation of MRTF (Evelyn et al, supra; Jin et al., supra).

[5] = Stability in liver microsomes; type: in vitro ADME
[6] = Preliminary tolerability study in normal mice; type: in vivo; settings: 10 mg/kg i.p. daily for 2-weeks
Method: The experiments shown in FIG. 4 are repeated CCG-58150 and derivatives thereof. A range of doses (0.1, 1, and 10 mg/kg) is used to increase the likelihood of finding a well-tolerated dose that is effective.

CTGF mRNA = CTGF mRNA by qRT-PCR in LPA-stimulated NIH3T3 cells; type: cell-based

pIC50 [4]	SMILES	also measured
< 4.00	c1ccc(-c2nnc(SCCC3OCCCO3)o2)cc1 [compound 20321]	
5.19	O=C(O)CCSc1nnc(-c2cccc(Br)c2)o1 [compound 123853]	
< 4.00	Cc1occc1-c1nnc(SCCC(=O)O)o1 [compound 123873]	
< 4.00	O=C(O)CSc1nnc(-c2ccc(Cl)cc2Cl)o1 [compound 215027]	
< 4.00	COCCNC(=O)CCSc1nnc(-c2ccc(Cl)cc2Cl)o1 [compound 215160]	
7.64	COc1cc(C)ccc1-c1nnc(SCCC(=O)O)o1 [compound 215201]	
< 4.00	O=C(O)CCCc1nnc(-c2ccc(Cl)cc2Cl)o1 [compound 222620]	
8.07	COc1c(Cl)ccc(-c2nnc(SCCC(=O)O)o2)c1Cl [compound 222623]	
5.00	COc1cc(Cl)cc(Cl)c1-c1nnc(SCCC(=O)O)o1 [compound 222687]	
8.52	O=C(O)CCCCSc1nnc(-c2ccc(Cl)cc2Cl)o1 [compound 232503, 5-((5-(2,4-dichlorophenyl)-1,3,4-oxadiazol-2-yl)thio)pentanoic acid]	

Second part, the compound before the results:

SMILES	pIC50 [4]	also measured
CC(ONC(=O)c1cc(C(F)(F)F)cc(C(F)(F)F)c1)C(=O)Nc1ccc(Cl)cc1 (stereo not shown) [CCG-1423]		reduction of SRF-mediated transcription versus ROCK inhibitors [1]: more effective than ROCK inhibitors; activity in peritoneal fibrosis model (peritoneal fibrosis): in vivo activity
O=C(Nc1ccc(Cl)cc1)C1CCCN(C(=O)c2cccc(-c3ccco3)c2)C1 (stereo not shown) [CCG-203971]		cellular migration (cellular migration): inhibition of cellular migration; tolerability in vivo [2]: much better tolerated in vivo; fibrosis in bleomycin skin injury model (skin fibrosis): prevented fibrosis; also recorded: very strongly significant effect; also recorded: prevents skin fibrosis; hepatic clearance (In vivo pharmacokinetics; in vivo): rapid hepatic clearance; pharmacokinetics (overall) (In vivo pharmacokinetics; in vivo): poor pharmacokinetics; oral absorption (In vivo pharmacokinetics; in vivo, po): low oral absorption; acute cellular toxicity (Acute cellular toxicity): less acute cellular toxicity; also recorded: reduced acute cellular toxicity; potency relative to perfenidone (human dermal fibroblasts; FIG. 4C): 100 ×; myofibroblast differentiation / phenotype (αSMA) (human dermal fibroblasts): reverses the myofibroblast phenotype; also recorded: Suppression of myofibroblast activation; LPA-induced COL1A2 and ACTA2 (αSMA) mRNA [3]: inhibits
Cc1cccc(-c2nnc(SCCC(=O)O)o2)c1 [compound 58146]		cellular migration (cellular migration): inhibition of cellular migration; potency in SRE-luciferase ([4]; FIG. 2C, listed as CCG-58146): nM IC50; also recorded: markedly higher potency
O=C(O)CCSc1nnc(-c2ccc(Cl)cc2Cl)o1 [compound 58150]	8.40	cellular migration (cellular migration): inhibition of cellular migration; blood levels 24 hours after a single oral dose relative to in vitro IC50 (In vivo pharmacokinetics; 24 hours, single oral dose): over 10 fold; pharmacokinetics (overall) (In vivo pharmacokinetics; in vivo): very good in vivo pharmacokinetics; stability in liver microsomes [5]: highly favorable stability; potency to reduce alpha-SMA staining, human primary dermal fibroblasts (human dermal fibroblasts; listed as CCG-58150): fM-pM; potency to reduce alpha-SMA staining, human primary dermal fibroblasts (human dermal fibroblasts; listed as CCG-518150): fM-pM potency; myofibroblast differentiation / phenotype (αSMA) (human dermal fibroblasts): αSMA inhibition; myofibroblast differentiation / phenotype (αSMA) (human dermal fibroblasts; listed as CCG-58150): blocks myofibroblast differentiation at pM concentrations; maximum suppression, inhibition of % αSMA positive cells (human dermal fibroblasts; maximum effect): 60%; tolerability [6]: tolerated; potency in a 24-hour assay in NIH 3T3 cells (CTGF mRNA; 24-hour assay): nM potency; pIC50 (CTGF mRNA; Mus musculus, FIG. 3, NIH3T3 cells stimulated with LPA, read-out: IC50, inhibition of expression of endogenous CTGF mRNA): 9.00
COC(=O)CSc1nnc(-c2ccc(C)cc2)o1 [compound 105557]	5.28	
COc1ccc(-c2nnc(SCCC(=O)O)n2C)cc1 [compound 107983]	< 4.00	
O=C(O)CCSc1nc2ccccc2n1Cc1ccccc1 [compound 111085]	< 4.00	
Cc1ccc(-c2nnc(SCC(=O)O)o2)cc1 [compound 114898]	5.17	
Cc1cccc(-c2nnc(SCC(=O)O)o2)c1 [compound 123860]	4.37	
O=C(O)CCSc1nnc(-c2ccncc2)o1 [compound 123867]	< 4.00	
O=C(O)CCSc1nnc(-c2cccnc2)o1 [compound 123869]	4.06	
Cc1cccc(-c2nnc(SCC(N)=O)o2)c1 [compound 211912]	< 4.00	
CCCN(CCC)C(=O)CSc1nnc(-c2cccc(C)c2)o1 [compound 211913]	< 4.00	
O=C(O)CCSc1nc(-c2ccccc2)cc(=O)[nH]1 [compound 211914]	< 4.00	
CCOC(=O)CSc1nnc(-c2ccc(Cl)cc2Cl)o1 [compound 215028]	< 4.00	
CC(C)(C)NC(=O)CSc1nnc(-c2ccc(Cl)cc2Cl)o1 [compound 215029]	< 4.00	
COc1ccc(-c2nnc(SCCC(=O)O)[nH]2)cc1 [compound 215104]	< 4.00	
O=C(O)CCOc1nnc(-c2ccc(Cl)cc2Cl)s1 [compound 215240]	4.62	
O=C(O)CCSc1nnc(-c2ccc(F)cc2Cl)o1 [compound 232002]	7.60	
